Assay results reported in patent US10954188B2, “Isotope-enriched 3-amino-1-propanesulfonic acid derivatives and uses thereof” (RISEN (SUZHOU) PHARMA TECH CO., LTD., priority 2017, dated 2021).
Entries after “also recorded” stand apart in the source; their conditions may differ. Where a name gives a salt, the structure may show the parent alone.

Key:
[1] = Pharmacokinetic study in C57Bl6 mice; assay type: in vivo; set-up: AUC(0-t): concentration or dose not given beside the values; settings: mouse, oral gavage, plasma, prodrug; for AUC(0-t): read-out: Prodrug AUCt; for half-life: read-out: Prodrug T1/2 (converted)
Experimental: (§1) Forty-two male ICR mice, body-weight of 19 to 21 g, are randomized into 7 groups. The animals are administered with an aqueous solution of a test compound by oral gavage. Blood samples are collected into tubes pre-loaded with heparin anticoagulating agent, at time 0.167, 0.5, 1, 2, 4, 8, and 12 h after administration. Blood samples are centrifuged, and plasma samples are isolated for analysis of the test compound (including compounds administered, metabolites, and/or prodrugs). A 400 μL blood sample is collected from each animal, and then the animal is put to sleep with barbiturate anesthesia; perfusion is performed (through the main vein of the heart) with saline at a rate of 5 mL/min., for 6 min. The brain is collected and kept at −40° C. until the sample is analyzed. The protein in the plasma is precipitated and the analytical sample is analyzed on an AB4000-Q-Trap UPLC-MS/MS instrument.
Pharmacokinetic studies were performed in C57B16 mice. The experiments were done using the same protocol described in Example 20. For each compound, 42 animals were used (6 animals per time point, and 7 time points distributed at 10 min, 0.5, 1, 2, 4, 8 and 12 h).

[2] = Compound stability in simulated gastric fluid (SGF); assay type: in vitro ADME; settings: 400 μg/mL, 37° C., percentage of initial concentration, LC-MS/MS
Experimental: Compounds were evaluated for stability in simulated gastric fluid (SGF). A solution of a compound in SGF (400 μg/mL) was incubated at 37° C. for 4 h. An aliquot of the sample was withdrawn, at time 0 and time 4 h, for concentration analysis on a LC-MS/MS instrument. The initial concentration (at time 0) of a compound was considered as 1, and the remaining concentration of the compound at 4-h time point was calculated and expressed as the percentage of the initial concentration.

[3] = Compound stability in whole mouse blood; assay type: in vitro ADME; settings: fresh mouse blood, initial concentration 1.44 μM, 37° C., test (parent) compound at 4 h
Experimental: Compounds were also evaluated for stability in whole mouse blood. A sample of test compound in fresh mouse blood (at a concentration of 1.44 μM) was incubated at 37° C. for 4 h. An aliquot of the sample was withdrawn, at time 5 min. and time 4 h, for concentration analysis on a LC-MS/MS instrument after converting the blood sample to an analytical sample employing standard sample preparation procedures. The detailed recovery of the compound was not fully evaluated and optimized. The sample was analyzed for the parent compound and the therapeutic compound.

[4] = Pharmacokinetic study in ICR mice, oral (FIGS. 1 and 2); assay type: in vivo; settings: for concentration of metabolite (2-carboxy-1-ethanesulfonic acid) in plasma compared to 3APS (of natural abundance): 0.72 mmol/kg, 2 h; for drug metabolism compared to 3APS (of natural abundance) / plasma drug exposure compared to 3APS (of natural abundance): mole-equivalent dose (0.72 mmol/kg)
Experimental: A compound according to the invention is dissolved in water at a concentration determined by the desired dose and dosing volume for the specific animal to which the compound is to be administered. A calculated volume of dosing solution is administered to the animal (PO, SQ, IP, or IV). A blood sample is collected following administration of the compound at specific time points (such as 10 min., 30 min., 1 h, 2 h, 4 h, 8 h, and 12 h). The blood sample is converted to a plasma sample using standard techniques. A brain sample can also be collected after complete perfusion. The plasma and/or brain samples are analyzed to determine the concentration of relevant compounds (including e.g., administered compounds, therapeutic compounds (e.g., drugs) and metabolites).
as §1

Cmax [1]	AUC(0-t) [1]	half-life [1]	Remaining (%) at 4 h [2]	Compound conc. (μM) at 4 h [3]	concentration of metabolite (2-carboxy-1-ethanesulfonic acid) in plasma compared to 3APS (of natural abundance) [4]	conversion of prodrug to compound 1 in the subject ([4]; plasma)	SMILES	drug metabolism compared to 3APS (of natural abundance) [4]	plasma drug exposure compared to 3APS (of natural abundance) [4]
1090 ng/mL	782 ng·h/mL	0.4 h	99%	0.03 µM	–	–	[2H]C([2H])(CCS(=O)(=O)O)NC(=O)[C@@H](N)Cc1ccccc1 [Compound 5, 3-((L-phenylalanyl)amino)-3,3-dideuterium-1-propanesulfonic acid]	–	–
19000 ng/mL	14200 ng·h/mL	1.1 h	101%	1.20 µM	–	–	N[C@@H](Cc1c[nH]cn1)C(=[18O])NCCCS(=O)(=O)O [Compound 17, 3-((^18O-L-histidyl)amino)-1-propanesulfonic acid hydrobromide]	–	–
22300 ng/mL	44700 ng·h/mL	1.9 h	–	–	–	–	[2H]C([2H])(CCS(=O)(=O)O)NC(=O)[C@@H](N)CO [Compound 3, 3-(L-serylamino)-3,3,-dideuterium-1-propanesulfonic acid]	–	–
672 ng/mL	1830 ng·h/mL	0.5 h	–	–	–	–	C[C@H](N)C(=[18O])NCCCS(=O)(=O)O [Compound 13, 3-((^18O-L-alanyl)amino)-1-propanesulfonic acid]	–	–
–	–	–	(100) %	0.98 µM	much lower	–	[2H]C([2H])(N)CCS(=O)(=O)O [Compound 1, 3-amino-3,3-dideuterium-1-propanesulfonic acid]	delayed drug metabolism; also recorded: delayed metabolic profile	improved plasma drug exposure significantly
–	–	–	104%	0.78 µM	–	–	CC(C)[C@H](N)C(=[18O])NCCCS(=O)(=O)O [Compound 15, 3-((^18O-L-valyl)amino)-1-propanesulfonic acid]	–	–
–	–	–	–	0.80 µM	–	–	[2H]C([2H])(CCS(=O)(=O)O)NC(=[18O])[C@@H](N)C(C)C [Compound 29, 3-((^18O-L-valyl)amino)-3,3-dideuterium-1-propanesulfonic acid]	–	–
9920 ng/mL	16600 ng·h/mL	1.4 h	–	–	–	–	[2H]C([2H])(CCS(=O)(=O)O)NC(=O)[C@@H](N)Cc1c[nH]cn1 [Compound 6, 3-((L-histidyl)amino)-3,3-dideuterium-1-propanesulfonic acid hydrochloride]	–	–
472 ng/mL	348 ng·h/mL	0.6 h	–	0.18 µM	–	–	[2H]C([2H])(CCS(=O)(=O)O)NC(=O)[C@H](C)N [Compound 2, 3-((L-alanyl)amino)-3,3-dideuterium-1-propanesulfonic acid]	–	–
3840 ng/mL	11900 ng·h/mL	1.5 h	96%	0.74 µM	–	–	N[C@@H](Cc1ccccc1)C(=[18O])NCCCS(=O)(=O)O [Compound 16]	–	–
39500 ng/mL	38000 ng·h/mL	1.5 h	107%	0.74 µM	much lower	converted easily to 1	[2H]C([2H])(CCS(=O)(=O)O)NC(=O)[C@@H](N)C(C)C [Compound 4, 3-((L-valyl)amino)-3,3-dideuterium-1-propanesulfonic acid]	delayed drug metabolism	improved plasma drug exposure significantly; also recorded: even greater improvement of drug exposure
